Test results taken from paper PMC2667100 (Molecular and cellular endocrinology, 2008).
Residue numbers refer to the chain shown, from its start. Like-named read-outs stand apart in the source and are kept apart here.

Columns and labels:
[1] = tested on: MCF-7 Tet-off 3β-HSD1 aromatase cells; test: Inhibition of DHEA-stimulated proliferation; type: cell-based, human; settings: for fold higher affinity, 3β-HSD1 cells relative to 3β-HSD2 cells (IC50): ratio of proliferation IC50 values
[2] = tested on: MCF-7 Tet-off 3β-HSD2 aromatase cells; test: Inhibition of DHEA-stimulated proliferation; type: cell-based, human; settings: DHEA 5 nM, concentration-dependent
purified human 3β-HSD1 [3] = molecular target: T1, purified human 3β-HSD1 (Homo sapiens, UniProt P14060); test: Substrate and cofactor kinetics of the isomerase activity; type: biochemical; settings: 27°C, pH 7.4
purified human 3β-HSD2 [4] = molecular target: T2, purified human 3β-HSD2 (Homo sapiens, UniProt P26439); test: as above; type: biochemical; settings: 27°C, pH 7.4
T2 sequence (P26439 1-372): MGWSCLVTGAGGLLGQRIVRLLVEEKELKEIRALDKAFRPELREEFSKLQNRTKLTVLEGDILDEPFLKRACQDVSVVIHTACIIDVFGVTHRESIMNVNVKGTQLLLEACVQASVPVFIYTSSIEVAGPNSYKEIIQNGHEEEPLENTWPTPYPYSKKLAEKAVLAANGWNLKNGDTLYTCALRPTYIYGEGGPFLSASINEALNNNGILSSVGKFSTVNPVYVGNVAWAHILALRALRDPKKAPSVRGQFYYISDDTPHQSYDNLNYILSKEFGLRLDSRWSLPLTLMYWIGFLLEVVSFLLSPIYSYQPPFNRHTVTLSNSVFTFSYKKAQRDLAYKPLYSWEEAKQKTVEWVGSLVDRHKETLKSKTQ

[5] = molecular target: T3, purified human P195R-2 mutant of 3β-HSD2 (Homo sapiens, UniProt P26439, P195R); test: as above; type: biochemical; settings: 27°C, pH 7.4
T3 sequence (P26439 1-372 P195R): T2 sequence (P26439 1-372) with P195R

purified human 3β-HSD1 [6] = molecular target: T1, purified human 3β-HSD1; test: Inhibition kinetics of purified enzyme; type: biochemical
purified human 3β-HSD2 [7] = molecular target: T2, purified human 3β-HSD2; test: Inhibition kinetics of purified enzyme; type: biochemical; settings: for mode of inhibition: Dixon analysis
[8] = molecular target: T3, purified human P195R-2 mutant of 3β-HSD2; test: Inhibition kinetics of purified enzyme; type: biochemical
[9] = tested on: MCF-7 Tet-off 3β-HSD1 aromatase cells; test: Stimulation of proliferation; type: cell-based, human; settings: for stimulation of cell growth: no dox; for EC50: Homo sapiens, MCF7, 240 h, read-out: EC50, stimulation of growth
[10] = tested on: MCF-7 Tet-off 3β-HSD2 aromatase cells; test: Stimulation of proliferation; type: cell-based, human; settings: for stimulation of cell growth: no dox; for EC50: Homo sapiens, MCF7, 240 h, read-out: EC50, stimulation of growth
[11] = tested on: MCF-7 Tet-off 3β-HSD1 and 3β-HSD2 aromatase cells; test: DHEA stimulation of proliferation, mean over both recombinant cell lines; type: cell-based; settings: Homo sapiens, MCF7, read-out: mean EC50, stimulation of proliferation
purified human 3β-HSD1 [12] = molecular target: T1, purified human 3β-HSD1; test: Substrate and cofactor kinetics of the 3β-HSD activity; type: biochemical; settings: 27°C, pH 7.4
purified human 3β-HSD2 [13] = molecular target: T2, purified human 3β-HSD2; test: as above; type: biochemical; settings: 27°C, pH 7.4
[14] = molecular target: T3, purified human P195R-2 mutant of 3β-HSD2; test: as above; type: biochemical
MCF-7 cells = test: Proliferation of MCF-7 cells in the absence of DHEA substrate; type: cell-based, human
[15] = 5-androstene-3,17-dione 20–100 μM, NADH 0.05 mM
[16] = DHEA 8.0 or 20.0 μM, NAD+ 0.2 mM, 27 °C, pH 7.4
[17] = NADH 0–50 μM, 5-androstene-3,17-dione 100 μM
[18] = read-out: Km, isomerase cofactor (allosteric activator), NADH 0–50 μM, 5-androstene-3,17-dione 100 μM
[19] = read-out: Km, 3β-HSD cofactor, NAD+ 10–200 μM, DHEA 100 μM

T1 sequence (P14060 whole entry): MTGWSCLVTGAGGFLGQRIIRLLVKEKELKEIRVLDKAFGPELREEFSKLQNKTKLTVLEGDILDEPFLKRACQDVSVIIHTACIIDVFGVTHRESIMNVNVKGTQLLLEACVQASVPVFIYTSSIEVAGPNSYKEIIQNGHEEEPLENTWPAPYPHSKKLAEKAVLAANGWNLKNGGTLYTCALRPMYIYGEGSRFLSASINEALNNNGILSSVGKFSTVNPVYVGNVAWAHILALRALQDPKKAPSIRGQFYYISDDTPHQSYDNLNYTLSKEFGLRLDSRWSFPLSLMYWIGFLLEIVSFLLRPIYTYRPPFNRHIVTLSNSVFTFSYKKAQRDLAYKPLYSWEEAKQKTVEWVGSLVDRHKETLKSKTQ

4-hydroxy-tamoxifen
effect on DHEA-stimulated proliferation ([1]; DHEA 5 nM, concentration-dependent): decreases the DHEA-stimulated proliferation
effect on DHEA-stimulated proliferation [2]: decreases the DHEA-stimulated proliferation

C[C@]12CCC(=O)CC1=CC[C@@H]1[C@@H]2CC[C@]2(C)C(=O)CC[C@@H]12 [5-androstene-3,17-dione]
kcat, isomerase substrate (purified human 3β-HSD1 [3]; [15]): 0.837 ± 0.0333 s⁻¹
kcat, isomerase substrate (purified human 3β-HSD2 [4]; [15]): 1.36 ± 0.1 s⁻¹
kcat, isomerase substrate [5, 15]: 2.18 ± 0.163 s⁻¹
Km ([5]; read-out: Km, isomerase substrate, 5-androstene-3,17-dione 20–100 μM, NADH 0.05 mM): 119 ± 5 µM

CC(=O)OC1CCC2C3CCC45OC4C(O)=C(C#N)CC5(C)C3CCC12C (stereo not drawn) [17β-acetoxy-trilostane]
Ki (purified human 3β-HSD1 [6]; DHEA 4.0 or 8.0 μM, NAD+ 0.2 mM, 27 °C, pH 7.4): 430 ± 30 nM
Ki (purified human 3β-HSD2 [7]; [16]): 1590 ± 100 nM
mode of inhibition (purified human 3β-HSD2 [7]): non-competitive
Ki [8, 16]: 390 ± 30 nM

C[C@]12CCC(=O)C=C1CC[C@@H]1[C@@H]2CC[C@]2(C)C(=O)CC[C@@H]12 [Androstenedione, androstenedione]
stimulation of cell growth [9]: stimulates the proliferation
stimulation of cell growth [10]: stimulates the proliferation

C[C@]12CC[C@H](O)CC1=CC[C@@H]1[C@@H]2CC[C@]2(C)C(=O)CC[C@@H]12 [DHEA, Dehydroepiandrosterone]
stimulation of cell growth [9]: stimulated
stimulation of cell growth [10]: stimulated
EC50 [11]: 5 nM
kcat, 3β-HSD substrate (purified human 3β-HSD1 [12]; DHEA 2–100 μM, NAD+ 0.2 mM): 0.055 ± 0.0033 s⁻¹
kcat, 3β-HSD substrate (purified human 3β-HSD2 [13]; DHEA 2–100 μM, NAD+ 0.2 mM): 0.115 ± 0.0083 s⁻¹
kcat, 3β-HSD substrate ([14]; DHEA 2–100 μM, NAD+ 0.2 mM, 27°C, pH 7.4): 0.158 ± 0.012 s⁻¹
fold higher affinity for substrate, P195R-2 vs wild-type 3β-HSD2 (Km) ([14]; ratio of Km values): 3.6 fold
Km ([14]; read-out: Km, 3β-HSD substrate, DHEA 2–100 μM, NAD+ 0.2 mM, 27°C, pH 7.4): 13.3 ± 2.5 µM

C[C@]12CC[C@H](OS(=O)(=O)O)CC1=CC[C@@H]1[C@@H]2CC[C@]2(C)C(=O)CC[C@@H]12 [DHEA-S, dehydroepiandrosterone-sulfate]
stimulation of cell growth [9]: stimulated
stimulation of cell growth [10]: stimulated

NC(=O)C1=CN([C@@H]2O[C@H](COP(=O)(O)OP(=O)(O)OC[C@H]3O[C@@H](n4cnc5c(N)ncnc54)[C@H](O)[C@@H]3O)[C@@H](O)[C@H]2O)C=CC1 [NADH]
kcat, isomerase cofactor (allosteric activator) (purified human 3β-HSD1 [3]; [17]): 0.75 ± 0.03 s⁻¹
Km (purified human 3β-HSD1 [3]; [18]): 4.6 ± 0.2 µM
kcat, isomerase cofactor (allosteric activator) (purified human 3β-HSD2 [4]; [17]): 1.65 ± 0.107 s⁻¹
Km (purified human 3β-HSD2 [4]; [18]): 12.6 ± 0.9 µM
kcat, isomerase cofactor (allosteric activator) [5, 17]: 1.49 ± 0.0967 s⁻¹
Km [5, 18]: 10 ± 0.2 µM

NC(=O)c1ccc[n+]([C@@H]2O[C@H](COP(=O)([O-])OP(=O)(O)OC[C@H]3O[C@@H](n4cnc5c(N)ncnc54)[C@H](O)[C@@H]3O)[C@@H](O)[C@H]2O)c1 [NAD^+]
kcat, 3β-HSD cofactor (purified human 3β-HSD1 [12]; NAD+ 10–200 μM, DHEA 100 μM): 0.0583 ± 0.0033 s⁻¹
Km (purified human 3β-HSD1 [12]; [19]): 34.1 ± 1.7 µM
kcat, 3β-HSD cofactor (purified human 3β-HSD2 [13]; NAD+ 10–200 μM, DHEA 100 μM): 0.118 ± 0.01 s⁻¹
Km (purified human 3β-HSD2 [13]; [19]): 86.3 ± 5.6 µM
kcat, 3β-HSD cofactor ([14]; NAD+ 10–200 μM, DHEA 100 μM, 27°C, pH 7.4): 0.153 ± 0.005 s⁻¹
Km ([14]; read-out: Km, 3β-HSD cofactor, NAD+ 10–200 μM, DHEA 100 μM, 27°C, pH 7.4): 56.4 ± 3.2 µM

C[C@]1(O)CC[C@H]2[C@@H]3CC[C@@]45O[C@]4(C)C(O)=C(C#N)C[C@]5(C)[C@H]3CC[C@@]21C [epostane]
fold higher affinity, 3β-HSD1 cells relative to 3β-HSD2 cells (IC50) [1]: 12 fold
ER-agonist activity (stimulation of proliferation) (MCF-7 cells): none of these compounds has ER-agonist activity

C[C@]12CC[C@@H]3c4ccc(O)cc4CC[C@H]3[C@@H]1CC[C@@H]2O [estradiol]
EC50 [9]: 0.24 nM
EC50 [10]: 0.32 nM

C[C@]12CC[C@@H]3c4ccc(O)cc4CC[C@H]3[C@@H]1CCC2=O [estrone]
EC50 [9]: 0.39 nM
EC50 [10]: 0.34 nM

N#Cc1ccc(C(c2ccc(C#N)cc2)n2cncn2)cc1 [letrozole]
ER-agonist activity (stimulation of proliferation) (MCF-7 cells): none of these compounds has ER-agonist activity

C[C@]12CC[C@H]3[C@@H](CC[C@@]45O[C@@H]4C(O)=C(C#N)C[C@]35C)[C@@H]1CC[C@@H]2O [trilostane, 2α-cyano-4α,5α-epoxy-17β-ol-androstane-3-one]
fold higher affinity, 3β-HSD1 cells relative to 3β-HSD2 cells (IC50) [1]: 16 fold
ER-agonist activity (stimulation of proliferation) (MCF-7 cells): none of these compounds has ER-agonist activity
Ki (purified human 3β-HSD1 [6]): 100 ± 10 nM
fold higher affinity for 3β-HSD1 than 3β-HSD2 (Ki) (purified human 3β-HSD1 [6]; purified enzymes): 16 fold
Ki (purified human 3β-HSD2 [7]): 1600 ± 100 nM
mode of inhibition (purified human 3β-HSD2 [7]): noncompetitively
Ki [8]: 190 ± 20 nM
